According to paper PMC7600679, “Benzoxazole-Based Metal Complexes to Reverse Multidrug Resistance in Bacteria” (Antibiotics, 2020):
pIC50: −log10 of the molar value. Converted amounts (≈) assume the structure as drawn. Read-outs that look alike come from different tables or passages of the source.

What was measured:
[1] = test system: E. coli AG100; assay: Resistance modulation (MIC reduction) assay with CIP and TET; type: cell-based, Escherichia coli; conditions: compound at ¼ MIC, value is the MIC of ciprofloxacin
Protocol: The resistance modulation effects of compounds with ciprofloxacin (CIP) and tetracycline (TET) antibiotics were evaluated by the MIC reduction method on the Gram-negative E. coli AG100, AG100 A, and the Gram-positive S. aureus ATCC and MRSA strains.
The chemosensitizing activity of benzoxazole-type ligands and their metal complexes was determined based on the MIC values of the antibiotics in the presence of sub-inhibitory concentrations of the compounds (¼ MIC) in both Gram-negative and Gram-positive strains. The MICs were determined in strains by the two-fold broth microdilution method in 96-well plates, using serial dilutions of TET and CIP. The first four rows contained two-fold dilutions of antibiotics, and combinations of the TET and CIP and tested compounds were transferred into the last four rows. The 10^−4 dilution of an overnight bacterial culture in 50 μL of MHB was then measured to each well, except for the medium control wells. The plates were kept at 37 °C for 18 h. MIC values of antibiotics and their combination with tested compounds were detected by visual inspection.

[2] = test system: E. coli AG100; assay: Minimum inhibitory concentration (broth microdilution, CLSI); type: cell-based, Escherichia coli; conditions: E. coli AG100, 18 h, visual inspection, read-out: MIC
Protocol: The strains were donated by Prof. Dr. Hiroshi Nikaido (Department of Molecular and Cell Biology and Chemistry, University of California, Berkeley, CA, USA).
The minimum inhibitory concentrations (MICs) of compounds were determined in 96-well plates based on the Clinical and Laboratory Standard Institute guidelines (CLSI guidelines). The compounds were diluted in 100 μL of MHB. Then, 10^−4 dilution of an overnight bacterial culture in 100 μL of medium were added to each well, with the exception of the medium control wells.

[3] = test system: MRC-5 human embryonal lung fibroblast cell line; assay: Cytotoxicity assay (MTT); type: cell-based
Protocol: The MRC-5 human embryonic lung fibroblast cell line (ATCC CCL-171; provider: LGC Promochem, Teddington, UK) was used in the experiments. The cells were cultivated in Eagle’s Minimal Essential Medium (EMEM; Sigma–Aldrich, St. Louis, MO, USA), supplemented with 1% non-essential amino acid mixture, 10% heat-inactivated fetal bovine serum, 2 mM L-glutamine, 1 mM Na-pyruvate, nystatin, and a penicillin–streptomycin mixture in concentrations of 100 U/L and 10 mg/L, respectively. The supplementary components were obtained from Sigma–Aldrich, St. Louis, MO, USA. The cell culture was kept in a humidified atmosphere (5% CO2, 95% air) at 37 °C.
The activity of increasing concentrations of the compounds on cell growth was determined in 96-well flat-bottomed microtiter plates by two-fold serial dilutions of the benzoxazole derivatives. The adherent human embryonic lung fibroblast cells (10^4/well) was seeded in EMEM medium in 96-well microtiter plates for 4 h prior to the assay. The serial dilutions of the compounds were made in a separate plate, and then pipetted to the plates containing the MRC-5 cell line. Culture plates were incubated at 37 °C for 24 h; at the end of the incubation period, 20 μL of MTT (3-(4,5-dimethylthiazol-2-yl)-2,5-diphenyltetrazolium bromide) solution (from a 5 mg/mL stock solution) was measured to each well. After the incubation at 37 °C for 4 h, 100 μL of sodium dodecyl sulfate (SDS) solution (10% SDS in 0.01 M HCl) was added to each well to dissolve the formazan crystals and the samples were further incubated at 37 °C overnight. Cell growth was calculated by measuring the OD at 540 nm (ref. 630 nm) with a Multiscan EX ELISA reader. The cytotoxicity was expressed as IC50 values, defined as the inhibitory dose that reduces the growth of the cells exposed to the tested compounds by 50%.

[4] = test system: C. violaceum 026 sensor strain with AHL producer E. cloacae 31298; assay: Quorum sensing inhibition (agar diffusion, violacein production); type: cell-based, Chromobacterium violaceum; conditions: disc with 10 μL of 1 mM stock; reduction of violacein zone
Protocol: The following bacterial strains were applied in the QS tests: C. violaceum 026 as sensor strain and E. cloacae 31298 isolated from clinical wound (used as N-acyl-homoserine lactone (AHL) producer); this strain induced pigment production by C. violaceum and is a model strain to study QS interactions.
LB* was applied for these experiments. The sensor strain C. violaceum 026 and the AHL producer strains E. cloacae 31298 were inoculated as parallel lines and incubated at room temperature for 24–48 h. The inhibition of bacterial communication was determined by the agar diffusion method. Filter paper discs (7.0 mm in diameter) were impregnated with 10 μL of stock solutions (1 mM) of the compounds in DMSO. The discs were placed between the parallel lines of the sensor and the AHL producer strains. The plates were kept at room temperature for another 24–48 h, and the interactions between the strains and compounds were determined as the reduction in the size of the zone of purple pigment (violacein) production in millimeters. PMZ was applied as a positive control.

[5] = test system: S. aureus ATCC 25923; assay: Anti-biofilm effect (crystal violet); type: cell-based, Staphylococcus aureus; conditions: compound at ¼ MIC, 48 h, 30 °C, vs untreated biofilm mass
Protocol: The effect of ligands and their metal complexes on biofilm formation was evaluated on the reference S. aureus ATCC 25923 strain. The biofilm inhibition (%) was calculated based on the mean of absorbance units.
The biofilm production of the S. aureus ATCC 25923 strain was studied in 96-well plates using TSB broth in the presence of compounds. […] The final volume was 200 μL in each well. The samples were incubated at 30 °C for 48 h with gentle agitation (100 rpm). Then, the medium was removed, and the plate was washed with tap water to discard unattached cells. 200 μL CV (0.1% [v/v]) was added to the wells and incubated for 15 min at room temperature. CV was removed from the wells and the plate was washed again with tap water. 200 μL 70% ethanol was transferred to each well and the biofilm formation was determined by measuring the OD at 600 nm using Multiscan EX ELISA reader (Thermo Labsystems, Cheshire, CT, USA). The anti-biofilm effect of compounds was determined as the percentage (%) of decrease in biofilm formation. The assay was repeated a minimum of three times. The results were calculated using a t-test and p-values of <0.001 were considered significant.

SMILES	CIP MIC in combination with compounds [1] [µM]	MIC ([2]; Escherichia coli) [µM]	Cytotoxic effect (class in words) ([3]; 24 h)	pIC50 ([3]; Homo sapiens, MRC5, 24 h)	Inhibition zone (quorum sensing) [4] [mm]	Biofilm inhibition [5] [%]	MIC [2] [µM]	pIC50 ([3]; 24 h)
O=C(Cc1nc2ccccc2o1)C(F)F [Compound 3]	0.016	50 (≈ 10.6 µg/mL)	moderate (IC50: 31–60)	4.35	56	16.4	–	–
[O-]C(=Cc1nc2ccccc2o1)C(F)(F)Cl.[O-]C(=Cc1nc2ccccc2o1)C(F)(F)Cl.[Zn+2] [Compound 5]	0.016	–	–	–	16	–	50	4.61
[Fe+3].[O-]C(=Cc1nc2ccccc2o1)C(F)(F)F.[O-]C(=Cc1nc2ccccc2o1)C(F)(F)F.[O-]C(=Cc1nc2ccccc2o1)C(F)(F)F [Compound 12]	0.016	–	no (IC50 > 100 µM)	–	–	75	>100	< 4.00
